How the values were obtained:
[1] = target: T1, hENPP1 (Homo sapiens, UniProt P22413); assay: Differential scanning fluorimetry (DSF) thermal shift of hENPP1; assay type: binding; conditions: for ΔT m: DSF
T1 sequence (P22413 98-925): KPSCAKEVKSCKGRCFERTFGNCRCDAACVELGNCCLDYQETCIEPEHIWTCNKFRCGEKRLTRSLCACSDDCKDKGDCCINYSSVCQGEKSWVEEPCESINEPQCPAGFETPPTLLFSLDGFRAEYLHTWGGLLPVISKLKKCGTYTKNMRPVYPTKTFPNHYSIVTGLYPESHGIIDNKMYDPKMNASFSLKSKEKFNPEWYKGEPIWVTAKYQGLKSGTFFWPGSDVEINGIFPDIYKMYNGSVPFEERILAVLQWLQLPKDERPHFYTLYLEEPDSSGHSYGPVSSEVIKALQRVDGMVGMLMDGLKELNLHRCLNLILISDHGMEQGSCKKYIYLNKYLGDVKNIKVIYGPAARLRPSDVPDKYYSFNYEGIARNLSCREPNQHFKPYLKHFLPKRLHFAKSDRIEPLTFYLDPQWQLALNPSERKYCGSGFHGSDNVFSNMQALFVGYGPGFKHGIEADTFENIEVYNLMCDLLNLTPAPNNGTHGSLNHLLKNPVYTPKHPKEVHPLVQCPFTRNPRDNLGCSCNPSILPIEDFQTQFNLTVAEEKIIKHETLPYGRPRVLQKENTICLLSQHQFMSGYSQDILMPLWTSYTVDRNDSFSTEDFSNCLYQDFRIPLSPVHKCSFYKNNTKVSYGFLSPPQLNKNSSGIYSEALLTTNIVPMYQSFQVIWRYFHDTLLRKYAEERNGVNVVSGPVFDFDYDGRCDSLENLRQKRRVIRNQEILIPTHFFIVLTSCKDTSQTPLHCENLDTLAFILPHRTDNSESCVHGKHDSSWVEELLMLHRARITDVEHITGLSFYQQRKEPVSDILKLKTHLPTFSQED
Procedure: DSF experiments were performed using a Bio-Rad CFX96 thermocycler, with the fluorescence intensity measured with excitation and emission at 490 and 570 nm, respectively. Plates were heated from 20 to 100°C at a heating rate of 1.0°C min^−1. Protein was present at a final concentration of 15 µg ml^−1. The well volume was 20 µl. The buffer was 50 mM Tris–HCl pH 7.4, 150 mM NaCl, 50 µM ZnCl2. […] Ligands and controls were present in triplicate.

[2] = target: T1, hENPP1; assay: Surface plasmon resonance (SPR) binding to immobilised hENPP1 98–925, 1:1 steady-state affinity model; design: hENPP1^98–925 was coupled to the chip surface at 25°C; made in house; host or cells: 293-F cells (human), with 5 µM kifunensine
Procedure: The protein was diluted to 25 µg ml^−1 at pH 6.0 [10 mM 2-(N-morpholino)ethanesulfonic acid (MES), 0.005%(v/v) Tween 20] and injected to an immobilization level of 8–10 kRU. The surface was then blocked with 1 M ethanolamine pH 8.0 for 7 min. SPR experiments were performed at 25°C in SPR running buffer consisting of 50 mM Tris pH 7.4, 150 mM NaCl, 50 µM ZnCl2, 0.005%(v/v) Tween 20, 2%(v/v) DMSO. When performing dose–response testing, analytes were serially diluted (twofold or threefold), injected for 30–90 s contact time and allowed to dissociate back to baseline. The flow rate was 60 µl min^−1. Binding sensorgrams were processed, solvent-corrected and double-referenced using the Scrubber software (BioLogic Software, Australia). Responses at equilibrium for each analyte were fitted to a 1:1 steady-state affinity model that was available within Scrubber.

[3] = Determined by SPR, triplicates ± SD, 25°C, pH 7.4

Row | ΔT m ([1]; tested at 10 µM) | Kd [2, 3] [nM] | Kd ([2]; SPR) [nM] | ΔT m ([1]; compounds at 100 µM) | Tm ([1]; DSF melting curve, Supplementary Fig. S6) | Structure (SMILES)
1 | +1.2 | 1300 ± 300 | 1300 | – | – | Nc1nc2c(ncn2[C@@H]2O[C@@H]3COP(=O)(O)O[C@H]4[C@@H](O)[C@H](n5cnc6c(N)ncnc65)O[C@@H]4COP(=O)(O)O[C@H]3[C@H]2O)c(=O)[nH]1 [3′3′-cGAMP]
2 | – | 56 ± 3 | – | +3.3 | – | Nc1ncnc2c1ncn2[C@@H]1O[C@H](COP(=O)(O)OP(=O)(O)O)[C@@H](O)[C@H]1O [ADP]
3 | – | 103 ± 8 | – | +2.7 | – | Nc1ncnc2c1ncn2[C@@H]1O[C@H](COP(=O)(O)O)[C@@H](O)[C@H]1O [AMP]
4 | – | 1500 ± 300 | > 1000 | +2.1 | – | Nc1ccn([C@@H]2O[C@H](COP(=O)(O)O)[C@@H](O)[C@H]2O)c(=O)n1 [CMP]
5 | – | 100 ± 20 | – | – | – | COc1ccc2c(Oc3ccc(NS(N)(=O)=O)cc3)ccnc2c1 [Ex54]
6 | – | 470 ± 60 | – | +1.0 | 60.34 (+/-0.03) | Nc1nc(=O)c2ncn([C@@H]3O[C@H](COP(=O)(O)O)[C@@H](O)[C@H]3O)c2[nH]1 [GMP]
7 | – | 55 ± 6 | – | +4.5 | – | COc1cc2ncnc(N3CCC(CNS(N)(=O)=O)CC3)c2cc1OC [QPS2]
8 | – | 1800 ± 300 | > 1000 | +1.2 | – | Cc1cn([C@H]2C[C@H](O)[C@@H](COP(=O)(O)O)O2)c(=O)[nH]c1=O [TMP]
9 | – | 1100 ± 300 | > 1000 | +1.8 | – | O=c1ccn([C@@H]2O[C@H](COP(=O)(O)O)[C@@H](O)[C@H]2O)c(=O)[nH]1 [UMP]

— publication PMC7466750, “Crystal structures of human ENPP1 in apo and bound forms” (Acta Crystallographica. Section D, Structural Biology, 2020)
